The record followed here is ChEMBL document CHEMBL1151309, “Quanolirones I and II, two new human cytomegalovirus protease inhibitors produced by Streptomyces sp. WC76535” (J Nat Prod, 1998).

One experiment has as its system M109. The experiment is described as follows: Cytotoxicity against mouse M109 cells by XTT assay. Format: functional, cell-based. In general terms: Tetrazolium dyes change colour on reduction, which living cells bring about.
Experiment [1] in a line: Inhibition of GST-fused HCMV protease expressed in Escherichia coli by scintillation counting. On the set-up: species or system Human betaherpesvirus 5.

By IC50 is commonly meant the point on the concentration scale where inhibition reaches its midpoint. In the case of `Cc1cc(O)c2cc3c(c(O)c2c1)C(=O)c1ccc([C@@H]2C[C@H](O[C@H]4CC[C@H](O[C@H]5C[C@@H](O[C@H]6CC[C@H](O)[C@H](C)O6)[C@H](O)[C@H](C)O5)[C@H](C)O4)[C@@H](O)[C@@H](C)O2)c(O)c1C3=O`, the IC50 with M109 worked out at 12 µM; in experiment [1], 52 µM.

Take `Cc1cc(O)c2cc3c(c(O)c2c1)C(=O)c1ccc([C@H]2C[C@@H](O[C@H]4CC[C@H](O[C@H]5C[C@@H](O)[C@H](O)[C@@H](C)O5)[C@H](C)O4)[C@H](O)[C@@H](C)O2)c(O)c1C3=O` [QUANOLIRONE I]: the IC50 (in the experiment with M109; in experiment [1]) was 14 µM each time.

Turning to `Cc1cc(O)c2cc3c(c(O)c2c1)C(=O)c1ccc([C@H]2C[C@@H](O[C@@H]4CC[C@@H](O)[C@@H](C)O4)[C@H](O)[C@@H](C)O2)c(O)c1C3=O` [QUANOLIRONE II], the IC50 in the experiment on M109 came to 89 µM; in experiment [1], 35 µM.
